Experimental findings from patent publication US6057314A, “Low molecular weight bicyclic thrombin inhibitors” (Biochem Pharma Inc., priority 1997, dated 2000) are described below.

The IC50 is the point on the concentration scale where inhibition reaches its midpoint. By Ki is commonly meant a measure of affinity in units of concentration, obtained from inhibition or displacement.

Experiment [1] deals with T1, human thrombin (Homo sapiens, UniProt P00734). Description: dTT assay (fibrin clotting assay, human thrombin and bovine fibrinogen). The class given is biochemical. Particulars: Table 1; concentration required to double the clotting time; read-out: dTT IC50. The text has this: The clotting time was plotted against the inhibitor concentrations and the IC50 was estimated as the inhibitor concentration required to double the clotting time relative to the control.

Experiment [2] deals with T1, human thrombin. Description: Inhibition of amidolytic activity of human thrombin (Ki, fluorogenic substrate Tos-Gly-Pro-Arg-AMC). The note with it: Table 1, read-out: Ki (inhibitory dissociation constant for human thrombin). It is filed as biochemical. The procedure: In an assay to determine the inhibitory dissociation constant, Ki, for a given compound, a chromogenic or fluorogenic substrate of thrombin would be added to a solution containing a test compound and thrombin; the resulting catalytic activity of the enzyme would be spectrophotometrically determined. This type of assay is well known to those skilled in the art.
Determination of K1 Values for Heterocyclics
The steady-state velocity was then measured for a few minutes. The compounds of this invention were also pre-incubated with thrombin for 20 minutes at room temperature before adding the substrate.

Experiment [3] deals with T1, human thrombin. The experiment can be described thus: Fibrin clot assay (human plasma, turbidity). The class given is biochemical. Particulars: Table 1, 1 nM thrombin, at 30 minutes. The procedure:
The fibrin clot assay was performed essentially as described by Krtenansky et al, FEBS, 1987, 211:10. A serial dilution of the inhibitor was prepared in 50 mM tri HCl buffer (pH 7.8 at 23° C.) containing 0.1 M NaCl and 0.1% (w/v) polyethylene glycol 8000. Human plasma (60 μL, collected in 3.8% sodium citrate, blood/anticoagulate 9:1) was added to microtiter wells (microtiter plate, Falcon) containing 100 μL of various inhibitor dilutions. The solution was mixed after which 50 μL of human thrombin (1 nM final conc.) was added and mixed for 15 seconds. The turbidity of the clot was immediately monitored by microplate autoreader (Dynateck MR 5000) at 405 nm and recorded every 3 min. The maximal turbidity in the absence of inhibitors was reached within 60 min. IC50 values were calculated at 30 minutes as the inhibitor concentration that gave half the optical density of the control.

In experiment [4] the test system is washed platelets from rats. Description: Platelet secretion (14C-serotonin, 5-HT, release from washed rat platelets, thrombin stimulated). The class given is cell-based. The note with it: Table 1, human thrombin 0.1 IU/mL, read-out: Antiplatelet activity, 5-HT Secretion (IC50). The procedure: Platelet Aggregation and Secretion Rat blood was collected into ACD (6/1 v/v) by cardiac puncture. Suspensions of washed platelets were prepared as described by […] et al, (Br. J. Haematol. 1970, 19:7 and Proc. Soc. Exp. Biol. Med. 1971, 136:1021). […] Platelet counts were adjusted to 5000,000/ μL. To permit measurement of the extent of release of the contents of the dense granules, the platelets were labelled in the first washing solution with ^14 C-serotonin (5-HT) (1 μCi/10 mL of washing fluid) and release of ^14 C-serotonin was determined as described in Holmsen et al, (Enzymology, 1989, 169:206). […] (5 μM final conc.) was added to present the reuptake of released serotonin. Platelet aggregation was recorded at 37° C. in an aggregometer (BioData PAP-4) at a stirring speed of 1,100 rpm by measuring the variations of light transmission. […] IC50 values represent the concentration that was necessary to inhibit platelet aggregation or secretion to 50% of the control.

In experiment [5] the test system is washed platelets from rats. Description: Platelet aggregation (washed rat platelets, thrombin stimulated). The class given is cell-based. The note with it: Table 1, suspension of washed platelets from rats, human thrombin 0.1 IU/mL, read-out: Antiplatelet activity, Aggregation (IC50). The procedure:
Platelet Aggregation and Secretion Rat blood was collected into ACD (6/1 v/v) by cardiac puncture. Suspensions of washed platelets were prepared as described by […] et al, (Br. J. Haematol. 1970, 19:7 and Proc. Soc. Exp. Biol. Med. 1971, 136:1021). […] Platelet counts were adjusted to 5000,000/ μL. Platelet aggregation was recorded at 37° C. in an aggregometer (BioData PAP-4) at a stirring speed of 1,100 rpm by measuring the variations of light transmission. […] IC50 values represent the concentration that was necessary to inhibit platelet aggregation or secretion to 50% of the control.

Molecules are shown by their SMILES.

In the case of `N=C(N)NCCCC(NC(=O)[C@@H]1CSC2CC[C@@H](CC3CCCCC3)C(=O)N21)C(=O)Cc1ccccc1` (stereo partly drawn) [Compound 0020, 6S-cyclohexymethyl hexahydro-5-oxo-5H-thiazolo[3,2-a]pyridine-3R-carboxamido(benzylketoarginine)], the IC50 at human thrombin [1] is 22 µM; on human thrombin [3], over 450 µM; in experiment [4], 14.2 µM; in experiment [5], 18 µM. The Ki at human thrombin [2] came to 2.2 µM.
On the same counts, the results for `COC(=O)CCC(=O)C(CCCNC(=N)N)NC(=O)[C@@H]1CSC2CC[C@@H](Cc3ccccc3)C(=O)N21` (stereo partly drawn) [Compound 0015, 6S-benzylhexahydro-5-oxo-5H-thiazolo[3,2-a]pyridine-3R-carboxamido(propylcarbmethoxyketoarginine)] are 162 µM, over 450 µM, over 100 µM, over 100 µM and 16 µM.
On the same counts, the results for `N=C(N)NCCC[C@H](NC(=O)[C@@H]1CSC2CC[C@@H](CC3CCCCC3)C(=O)N21)C(=O)N1CCCC[C@@H]1C(=O)O` (stereo partly drawn) [Compound 0030, 6S-cyclohexylmethyl hexahydro-5-oxo-5H-thiazolo[3,2-a]pyridine-3R-carboxamido((S)-Arg-(R)-pipecolilic acid)] are 67 µM, 320 µM, over 100 µM, over 100 µM and 8.6 µM.
With `N=C(N)NCCCC(NC(=O)[C@@H]1CSC2CC[C@@H](CC3CCCCC3)C(=O)N21)C(=O)CSCC(=O)O` (stereo partly drawn) [Compound 0065, 6S-cyclohexylmethylhexahydro-5-oxo-5H-thiazolo[3,2-a]pyridine-3R-carboxamido(1-carboxy-3-thiobutylketoarginine)], the IC50 at human thrombin [1] amounted to 42 µM; against human thrombin [3], 200 µM; in experiment [4] it was 52 µM; in experiment [5], 47.5 µM. On human thrombin [2], the Ki was found to be 32.7 µM.
